Test results taken from paper PMC5814047, “Peptidic inhibitors of insulin-degrading enzyme with potential for dermatological applications discovered via phage display” (PLoS ONE, 2018).
Values after ≈ are worked out from the molar mass of the structure shown. Values joined by “and” are separate entries in the source; they are usually repeats but may differ in a detail not shown here. Equal values may be shown once. “Also recorded” adds a separate entry of the source. Read-outs that look alike come from different tables or passages of the source. Bridge positions count the residues as written; N and C are the ends. Peptide text beside a SMILES is read from it.

Key:
[1] = Solubility in assay medium and cell culture medium; type: physicochemical; settings: cosmetic-grade P12-3A, read-out: soluble up to
[2] = system: primary murine skin fibroblasts; assay: Cell proliferation (CellTiter 96 AQueous); type: cell-based; settings: for Cell count, Mean / Cell count: P12-3A 100 uM, 100nM insulin added, cells per well; for Cell count, Mean: N 6; for Cell count: individual replicates
Method: (§1) Insulin promotes wound healing and overall skin health by affecting a number of processes, including cell proliferation, cell migration, and the production and secretion of ECM components, particularly type I collagen. We therefore assessed the ability of P12-3A to influence these processes in cultured skin fibroblasts and keratinocytes. To that end, primary mouse skin fibroblasts were grown for 4 d in multiple concentrations of insulin in the presence or absence of P12-3A, and insulin concentration over time was monitored by ELISA. […] Finally, the effects of P12-3A on collagen production in were assessed at both the transcriptional and the posttranslational level in confluent monolayers of fibroblasts. After 4 d of treatment with P12-3A (100 μM), mRNA levels for the major form of collagen, alpha-1 type I collagen (COL1A1), were quantified by RT-PCR and found to be increased to ~2.6 times the levels of untreated cells (Fig 4C). To assess overall levels of collagen production and secretion, we quantified levels of hydroxyproline, a modified amino acid present almost exclusively in collagen proteins. […] Western blotting also confirmed that mature, cell-associated collagen levels were increased in the presence of P12-3A (Fig 4E).
(§2) Fig 4 Effects of P12-3A on cultured skin cells. A, Insulin concentrations as a function of time in logarithmically growing primary murine skin fibroblasts in the absence or presence of P12-3A (100 μM). […] Data are mean ± SEM of 4 independent replications. *P<0.05, **P<0.01. B, Proliferation of cells in the absence or presence of P12-3A (100 μM). Data are mean ± SEM of 6 independent replications. […] C,D,E, P12-3A (100 μM) potentiates insulin-induced collagen production in skin fibroblasts. Collagen production was assessed by COL1A1 mRNA levels (C), levels of hydroxyproline secreted into the medium (D), and cell-associated mature alpha-1 type I collagen levels detected by Western blotting (E). Data are mean ± SD of 4 independent replications. *P<0.05, **P<0.01. […] Migration of HaCaT cells 48 h after induction of a scratch wound in the presence of the indicated quantities of insulin and/or P12-3A (100 μM). Data are mean ± SEM of 6 independent replications. *P<0.05, **P<0.01.
Primary murine skin fibroblasts cells (1 x 10^5/well) were plated in 96-well plates, using separate plates for each timepoint and endpoint. Cell proliferation was quantified using the CellTiter 96® AQueous Non-Radioactive Cell Proliferation Assay (Promega Corp., Madison, WI, USA) according to manufacturer’s recommendations.

[3] = system: alpha-1 type I collagen in primary murine skin fibroblasts; assay: Western blotting of cell-associated alpha-1 type I collagen; type: cell-based; settings: for COL1A1 Adj. Band Vol. normalized to control on each gel: control = Day 0 COL1A1+DMSO sample; for Normalized COL1A1/GAPDH ratio, Mean: mean of 4 replicates; for COL1A1/GAPDH ratio normalized to Day 0, DMSO only control, Mean: mean of 4 replicates (Figure 4E)
Method: as §1, §2
Protein was collected using the M-Per Mammalian Extraction Reagent and the concentration was quantified using the Pierce™BCA Protein Assay Kit according to manufacturer’s recommendations (Thermo Fisher Scientific, Waltham, MA, USA). Protein (30 μg/well) was separated SDS-PAGE under reducing conditions using Novex™ 10% polyacrylamide tris-glycine mini gels and transferred to nitrocellulose membranes as described. Briefly, membranes were blocked in 5% non-fat milk in tris-buffered saline supplemented with 0.2% Tween-20 (TBST), cut into segments and incubated for 1 h at room temperature with anti-alpha-1 type I collagen (1:5000) and anti-GAPDH (1:10,000) antibodies, washed extensively in TBST, then probed with anti-rabbit (1:20,000) or anti-goat (1:50,000) secondary antibodies, respectively, and detected by enhanced chemoluminescence using SuperSignal West Pico Substrate. Protein expression, normalized to GAPDH levels, was quantified using the band analysis tools of ImageLab software, version 4.1 (Bio-Rad Laboratories, Inc., Hercules, CA, USA).

MMP-7 = target: T1, MMP-7 (Homo sapiens, UniProt P09237); assay: MMP Inhibitor Profiling Kit, MMP-7; type: biochemical; settings: P12-3A 100 μM
T1 construct: purchased Enzo Life Sciences, Inc
T1 sequence (P09237 95-267): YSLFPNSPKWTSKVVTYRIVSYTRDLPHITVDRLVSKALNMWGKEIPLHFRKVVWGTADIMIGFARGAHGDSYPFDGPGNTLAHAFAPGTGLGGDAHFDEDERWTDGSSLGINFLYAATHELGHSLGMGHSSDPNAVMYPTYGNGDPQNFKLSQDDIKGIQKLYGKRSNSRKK
Method: IDE activity was quantified by monitoring the degradation of Mca-[…](Dnp) (FRET1, 5 μM), fluoresceinated and biotinylated amyloid ß-protein (FAßB; 500 nM) or recombinant human insulin (50 nM) in PBS supplemented with 0.05% BSA. FRET1 degradation was measured by changes in fluorescence (λex = 340 nm, λem = 420 nm); FAßB degradation was monitored by fluorescence polarization (λex = 488 nm, λem = 525 nm), as described; and insulin degradation was quantified by ELISA. In vitro activity assays incorporated recombinant human IDE (1 nM) purified from bacteria. For quantitation of insulin degradation in primary murine skin fibroblasts, cells (1 x 10^5/well) were plated in 96-well plates and maintained in DMEM supplemented with 10% fetal bovine serum (FBS), 2mM glutamine, penicillin and streptomycin. After addition of insulin (10 nM or 100 nM), samples of conditioned medium were removed daily and quickly frozen, then insulin levels were quantified in parallel by ELISA according to manufacturer’s recommendations (Crystal Chem, Downers Grove, IL, USA). Assessment of the activity of P12-3A against a variety of matrix-metalloproteases was conducted using the Matrix Metalloproteinase (MMP) Inhibitor Profiling Kit, Fluorometric RED (Enzo Life Sciences, Inc., Farmingdale, NY, USA) according to manufacturer’s recommendations using the broad-spectrum MMP inhibitor, NNGH, as a positive control. […]

SMILES: CC(C)C[C@H](NC(=O)[C@H](CO)NC(=O)[C@@H](N)CCC(N)=O)C(=O)N1CCC[C@H]1C(=O)N[C@@H](Cc1c[nH]c2ccccc12)C(=O)N[C@H]1CSSC[C@@H](C(=O)N[C@H](C(=O)N[C@H](C(N)=O)[C@@H](C)O)C(C)C)NC(=O)[C@H](Cc2c[nH]cn2)NC(=O)[C@@H]2CCCN2C(=O)[C@H](Cc2ccc(O)cc2)NC1=O [P12-3A] (H-QSLPWCYPHCVT-NH2; disulfide 6-10 (inferred))
- solubility ([1]; assay medium (PBS/0.05%BSA)): ~500 µM (≈ 715 µg/mL)
- solubility ([1]; cell culture medium): ~100 µM (≈ 143 µg/mL)
- cell proliferation relative to control cells ([2]; 100 μM P12-3A, 10 nM insulin): modestly increased; also recorded: No significant differences were observed
- Cell count, Mean ([2]; t 0 d): 0.15 *100,000
- Cell count ([2]; t 0 d): 0.1682 *100,000 and 0.1108 *100,000 and 0.1565 *100,000 and 0.1271 *100,000 and 0.1836 *100,000 and 0.1526 *100,000
- Cell count, Mean ([2]; t 1 d): 0.28 *100,000
- Cell count ([2]; t 1 d): 0.0908 *100,000 and 0.3439 *100,000 and 0.3368 *100,000 and 0.2676 *100,000 and 0.3256 *100,000 and 0.3423 *100,000
- Cell count, Mean ([2]; t 2 d): 0.63 *100,000
- Cell count ([2]; t 2 d): 0.4380 *100,000 and 0.6462 *100,000 and 0.8125 *100,000 and 0.5756 *100,000 and 0.7135 *100,000 and 0.6125 *100,000
- Cell count, Mean ([2]; t 3 d): 1.33 *100,000
- Cell count ([2]; t 3 d): 1.4714 *100,000 and 1.6270 *100,000 and 1.4135 *100,000 and 1.4988 *100,000 and 1.1573 *100,000 and 0.8293 *100,000
- Cell count, Mean ([2]; t 4 d): 2.46 *100,000
- Cell count ([2]; t 4 d): 3.2440 *100,000 and 1.8308 *100,000 and 1.5133 *100,000 and 1.9615 *100,000 and 2.9117 *100,000 and 3.3184 *100,000
- COL1A1/GAPDH ratio normalized to Day 0, DMSO only control ([3]; Day 0, individual replicates): 102.562 and 78.683 and 108.954 and 116.015
- Normalized COL1A1/GAPDH ratio from same sample ([3]; Day 0, individual replicates): 1.131 (2×) and 0.868 (2×) and 1.202 (2×) and 1.28 and 1.280
- COL1A1 Adj. Band Vol. normalized to control on each gel ([3]; Day 0, individual replicates): 1.022 and 0.7932 and 0.9786 and 1.091
- Normalized COL1A1/GAPDH ratio, Mean ([3]; Day 0): 1.120
- COL1A1/GAPDH ratio normalized to Day 0, DMSO only control, Mean ([3]; Day 0): 102
- Normalized COL1A1/GAPDH ratio from same sample ([3]; Day 4, individual replicates): 4.269 (2×) and 4.793 (2×) and 3.93 and 3.135 (2×) and 3.930
- COL1A1 Adj. Band Vol. normalized to control on each gel ([3]; Day 4, individual replicates): 3.82 and 4.41 and 3.218 and 2.717
- Normalized COL1A1/GAPDH ratio, Mean ([3]; Day 4): 4.032
- COL1A1/GAPDH ratio normalized to Day 0, DMSO only control, Mean ([3]; Day 4): 345
- mature, cell-associated collagen levels ([3]; in the presence of P12-3A (100 μM)): increased
- inhibition at 100 µM (MMP-7): ~18%
